Key:
BT-549 cells = assay: CD44 Western blot and CD44+/CD24-/low FACS in BT-549 cells; assay type: cell-based, human; details: for ability to repress CD44 expression with knockdown of TFAP2A: BT549 cells, TFAP2A siRNA, Western blot FIG. 6C; for CD44+/CD24-/low population by FACS analysis / CD44 expression by Western blot: BT-549 cells, FIG. 6A, 10 μM, 2-4 days
Procedure: (§1) The human breast cancer cell lines (MCF-7, SKBR-3, BT-20, BT-549, MCF-10A) were obtained from American Type Culture Collection. sKD-C cells were subcloned from parental MCF-7 cells with stable knockdown of TFAP2C as described (Cyr et al., 2014). ER<-positive tumors and the basal cancer tumor were obtained from surgical resection specimens. Cell suspensions were prepared with gentle collagenase/hyaluronidase (Stemcells) (Ponti et al., 2005). A new cell line was established from the basal tumor cells, called IOWA-1T (manuscript in preparation).
(§2) Western blots were performed as previously described (Cyr et al., 2014; Kulak et al., 2013). For immunoprecipitations anti-TFAP2A, anti-GFP antibody (Life Technologies) or IgG (#sc-2025, Santa Cruz Biotechnology) were cross-linked with Dynabeads protein A (Life Technologies). MCF7 protein was incubated with Dynabeads protein A-Abs complex, protein complexes were washed with DPBS (Gibco) with 0.01% Tween (Research Products International Corp.), and eluted with SDS loading buffer.
(§3) Cells were plated ([…]/10 cm2) and treated with 10 μM gingolic or anacardic acid (Sigma) for 2-4 days and collected for qPCR, Western blot and FACS analysis.
(§4) FACS analysis was performed as previously described (Roederer and Hardy, 2001).

MCF-10A cells = assay: CD44 expression and stem cell markers in normal breast cell line MCF-10A; assay type: cell-based, human; details: MCF-10A normal breast cell line
Procedure: as §1, §2, §3, §4

BT-20 cells = assay: CD44 Western blot and CD44+/CD24-/low FACS in BT-20 cells; assay type: cell-based, human; details: for ability to repress CD44 expression with knockdown of TFAP2A: BT20 cells, TFAP2A siRNA, Western blot FIG. 6C; for CD44+/CD24-/low population by FACS analysis / CD44 expression by Western blot: BT-20 cells, FIG. 6A, 10 μM, 2-4 days
Procedure: as §1, §2, §3, §4

[1] = tested on: undifferentiated thyroid cell line 8505c; assay: CD44 Western blot in 8505c thyroid carcinoma; assay type: cell-based; details: 96 h treatment, FIG. 19
Procedure: FIG. 19: Western blot, CD44 downregulation, 8505c thyroid carcinoma was treated with ginkgolic and anacardic acids, 96 h.
Similar downregulation of stem cell marker CD44 was determined in pancreatic carcinoma Panc-1 cell line (FIG. 18) and undifferentiated thyroid cell line 8505c (FIG. 19) after 96 h treatment with SUMO inhibitors anacardic and ginkgolic acids. • Woodfield, G. W., Horan, A. D., Chen, Y. & Weigel, R. J. TFAP2C controls hormone response in breast cancer cells through multiple pathways of estrogen signaling. Cancer Res 67, 8439-8443 (2007). • Woodfield, G. W., Chen, Y., Bair, T. B., Domann, F. E. & Weigel, R. J. Identification of primary gene targets of TFAP2C in hormone responsive breast carcinoma cells. Genes Chromosomes Cancer 49, 948-962, doi:10.1002/gcc.20807 (2010). • Tan, S. K. et al. AP-2gamma regulates oestrogen receptor-mediated longrange chromatin interaction and gene transcription. Embo J 30, 2569-2581, doi:10.1038/emboj.2011.151 (2011). • Sorlie, T. et al. Gene expression patterns of breast carcinomas distinguish tumor subclasses with clinical implications. Proc Natl Acad Sci USA 98, 10869-10874. (2001). • Kao, J. et al. Molecular profiling of breast cancer cell lines defines relevant tumor models and provides a resource for cancer gene discovery. […]

CCCCCCCCCCCCCCCc1cccc(O)c1C(=O)O [AA, Anacardic acid (C15:0)]
ability to repress CD44 expression with knockdown of TFAP2A (BT-549 cells): completely eliminated | CD44+/CD24-/low population by FACS analysis (BT-549 cells): significantly reduced | CD44 expression by Western blot (BT-549 cells): inhibited | CD44 expression (MCF-10A cells): no effect | percentage of cells expressing stem cell markers (MCF-10A cells): no effect | ability to repress CD44 expression with knockdown of TFAP2A (BT-20 cells): completely eliminated | CD44+/CD24-/low population by FACS analysis (BT-20 cells): significantly reduced | CD44 expression by Western blot (BT-20 cells): inhibited | stem cell marker CD44 (Western blot) [1]: downregulation

CCCCCC/C=C\CCCCCCCc1cccc(O)c1C(=O)O [GA, (Z)-6-(Pentadec-8-enyl)-2-hydroxybenzoic acid]
ability to repress CD44 expression with knockdown of TFAP2A (BT-549 cells): completely eliminated | CD44+/CD24-/low population by FACS analysis (BT-549 cells): significantly reduced | CD44 expression by Western blot (BT-549 cells): inhibited | CD44 expression (MCF-10A cells): no effect | percentage of cells expressing stem cell markers (MCF-10A cells): no effect | ability to repress CD44 expression with knockdown of TFAP2A (BT-20 cells): completely eliminated | CD44+/CD24-/low population by FACS analysis (BT-20 cells): significantly reduced | CD44 expression by Western blot (BT-20 cells): inhibited | stem cell marker CD44 (Western blot) [1]: downregulation

Source: patent US20160101076A1, “Use of Sumoylation Inhibitors for Treating Cancer” (priority 2013, published 2016)
